Reference: patent publication US6375926B1, “Labelled elastase inhibitors” (Amersham International PLC, priority 1996, dated 2002)

How the values were obtained:
[1] = molecular target: T1, HLE (human leucocyte elastase) (Homo sapiens, UniProt P08246); assay: Measurement of HLE inhibition potency (kinact/Ki); format: biochemical; conditions: measured for non-radioactive iodine-labelled compounds and unlabelled chelate conjugates
T1 sequence (P08246 30-267): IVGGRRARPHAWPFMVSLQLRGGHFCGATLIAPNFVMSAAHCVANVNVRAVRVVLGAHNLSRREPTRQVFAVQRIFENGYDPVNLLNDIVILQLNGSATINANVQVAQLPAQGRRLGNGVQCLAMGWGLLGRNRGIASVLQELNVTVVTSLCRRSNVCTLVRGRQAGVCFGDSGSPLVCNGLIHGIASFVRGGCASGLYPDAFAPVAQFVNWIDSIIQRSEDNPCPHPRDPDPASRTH
Method: Inhibitor potency against HLE is described by the parameter kinact/Ki as previously reported [Knight et al., Biochem., 8160-8170, (1992)]. Lyophilised enzyme was reconstituted with TrisHCl buffer, 100 mM, 0.5M NaCl at 0.05 units/ml (approximately nanomolar concentration) in a final reaction volume of 1 ml to which was added methoxysucc-ala-ala-pro-val-pNA substrate (1 mM) and the elastase inhibitor dissolved in DMSO. The reaction was monitored by detecting the change of absorbance at 410 nm (hydrolysis of the substrate releasing p-nitroaniline) over a timescale of 25 minutes. Values of kinact/Ki were estimated according to the Knight et al method.

[2] = system: isolated human white cells (granulocytes; monocytes + lymphocytes); assay: In vitro cell uptake in isolated human white cells; format: cell-based; conditions: for selectivity for granulocytes over a mixture of monocytes/lymphocytes: approximately equivalent numbers of monocytes/lymphocytes and granulocytes present; for % uptake in Gran. (granulocytes), WHITE CELLS / % uptake in Mon. (monocytes + lymphocytes), WHITE CELLS: isolated human white cells, 30 minutes at 37° C., radiolabelled compound
Method: Fresh blood (30-120 ml) was anticoagulated with 1.5% ACD solution and sedimented by addition of 2 ml Hespan per 10 ml blood for 90 minutes at room temperature. The leucocyte rich platelet rich plasma supernatant was removed and centrifuged at 150 g for 5 minutes, yielding a leucocyte rich pellet and platelet rich plasma (PRP). The PRP was centrifuged at 4000 g to pellet the platelets leaving a cell free plasma (CFP). The leucocyte pellet was resuspended in a 50:50 mixture of HBSS and CFP and incubated with the radioactive compound for 30 minutes at 37° C. Free radioactive material was then removed from the cells by addition of an excess of HBSS:CFP and centrifugation of the leucocytes at 150 g for 7 minutes. The supernatant and cell pellet were taken for radioactive counting for calculation of percentage cell uptake. The distribution of radioactivity within the cell pellet was assessed by separation of the cell types using Percoll density gradient centrifugation (38%, 55% and 73% Percoll in HBSS step gradients). The residual plasma and free activity was recovered from the top of the gradient, the mononuclear cells (lymphocytes and monocytes) from the interface between 38% and 55%, and the granulocytes were recovered from the interface between 55% and 73% Percoll.

[3] = system: mixed human red/white cells (granulocytes, monocytes + lymphocytes, erythrocytes); assay: In vitro cell uptake in mixed human red/white cells; format: cell-based; conditions: radiolabelled compound
Method: The radioactive compound was also incubated with an isolated leucocyte preparation to which an erythrocyte fraction had been added back. The packed erythrocytes obtained after blood sedimentation were washed twice with HBSS and then resuspended in their original blood volume with HBSS. Leucocytes obtained from 30 ml blood were resuspended in 0.5 ml erythrocyte suspension and 0.5 ml CFP. The cell suspension was then incubated with compound as above. Analysis of the distribution of activity in the cell pellet in the presence of red blood cells was carried out using Ficoll-Hypaque discontinuous density gradients (densities 1.04, 1.077 and 1.119 g/ml Histopaque steps).

[4] = system: human whole blood (granulocytes, monocytes + lymphocytes, erythrocytes); assay: In vitro cell uptake in human whole blood; format: cell-based; conditions: 37° C. for 1 hour, radiolabelled compound
Method: The radioactive compound was added to 1 ml whole blood anticoagulated with ACD and incubated at 37° C. for 1 hour. The blood was diluted with HBSS and the cellular component separated by centrifugation. Distribution of activity within the cellular pellet was assessed by separation of cell fractions on Ficoll-Hypaque gradients as above.

Structure (SMILES) | Potency (1/(M·s)), kinact/Ki [1] | selectivity for granulocytes over a mixture of monocytes/lymphocytes [2] | % uptake in Gran. (granulocytes), WHITE CELLS [2] | % uptake in Mon. (monocytes + lymphocytes), WHITE CELLS [2] | % uptake in Eryth. (erythrocytes), WHITE AND RED CELLS [3] | % uptake in Gran. (granulocytes), WHITE AND RED CELLS [3] | % uptake in Mon. (monocytes + lymphocytes), WHITE AND RED CELLS [3] | % uptake in Eryth. (erythrocytes), WHOLE BLOOD [4] | % uptake in Gran. (granulocytes), WHOLE BLOOD [4] | % uptake in Mon. (monocytes + lymphocytes), WHOLE BLOOD [4] | kinact/KI ([1]; read-out: Potency (M/sec), kinact/Ki)
CCC1(CC)C(=O)N(C(=O)NCc2ccccc2)C1Oc1ccc(C(=O)NCC(C)(CNC(C)(C)C(C)=NO)CNC(C)(C)C(C)=NO)cc1 (racemic) [Compound 49, Conjugate Between Chelate, 3,3,6,9,9-pentamethyl-6-aminomethyl-4,8-diazaundecane-2,10-dionedioxime and 4-[(4-carboxy)phenoxy]-1-[benzylaminocarbonyl]-3,3-diethyl-2-azetidinone] | 20000 M⁻¹ s⁻¹ | some degree of selectivity for granulocytes | 47.3% | 10.1% | 18.0% | 17.5% | 13.9% | 14.3% | 6.9% | 24.6% | 
CCC1(CC)C(=O)N(C(=O)NCCC(=O)NCC(C)(CNC(C)(C)C(C)=NO)CNC(C)(C)C(C)=NO)C1Oc1ccc(C(=O)N2CCN(C)CC2)cc1 (racemic) [Compound 42, Conjugate Between Chelate, 3,3,6,9,9-pentamethyl-6-aminomethyl-4,8-diazaundecane-2,10-dionedioxime and 4-[4-[[(4-Methyl)piperazin-1-yl]carbonyl]phenoxy]-1-[(2-carboxy)ethylaminocarbonyl]-3,3-diethyl-2-azetidinone] | 1400 M⁻¹ s⁻¹ | some degree of selectivity for granulocytes | 8.4% | 1.2% | 18.9% | 2.5% | 6.9% |  |  |  | 
CCC1(CC)C(=O)N(C(=O)NCc2ccc(C(=O)NCC(C)(CNC(C)(C)C(C)=NO)CNC(C)(C)C(C)=NO)cc2)C1Oc1ccc(C(=O)N2CCN(C)CC2)cc1 (racemic) [Compound 38, Conjugate Between Chelate, 3,3,6,9,9-Pentamethyl-6-aminomethyl-4,8-diazaundecane-2,10-dionedioxime and 4-[4-[[(4-Methyl)piperazin-1-yl]carbonyl]phenoxy]-1-[(4-carboxy)benzylaminocarbonyl]-3,3-diethyl-2-azetidinone] | 58500 M⁻¹ s⁻¹ | some degree of selectivity for granulocytes | 75.5% | 8.5% | 28.4% | 32.5% | 6.7% |  |  |  | 
CCC1(CC)C(=O)N(C(=O)NCCc2cc(I)c(O)c(I)c2)C1S(=O)(=O)CCOC (centres unmarked) [Compound 17, 4-(2-Methoxyethylsulfonyl)-1-[(3,5-diiodo)(4-hydroxy)phenylethylaminocarbonyl]-3,3-diethyl-2-azetidinone] |  | some degree of selectivity for granulocytes | 0.4% | 0.0% |  |  |  |  |  |  | 600 M⁻¹ s⁻¹
CCC1(CC)C(=O)N(C(=O)NCCCCCC(=O)NCC(C)(CNC(C)(C)C(C)=NO)CNC(C)(C)C(C)=NO)C1Oc1ccc(C(=O)N2CCN(C)CC2)cc1 (racemic) [Compound 48, Conjugate Between Chelate, 3,3,6,9,9-pentamethyl-6-aminomethyl-4,8-diazaundecane-2,10-dionedioxime and 4-[4-[[(4-Methyl)piperazin-1-yl]carbonyl]phenoxy]-1-[(5-carboxy)pentylaminocarbonyl]-3,3-diethyl-2-azetidinone] | 5500 M⁻¹ s⁻¹ | some degree of selectivity for granulocytes | 64.5% | 7.3% | 38.7% | 16.2% | 7.2% | 9.17% | 10.6% | 22.7% | 
CCC1(CC)C(=O)N(C(=O)NCc2ccc(I)cc2)C1Oc1ccc(C(=O)N2CCN(C)CC2)cc1 (single isomer, unassigned) [Compound 4b] | 1350 M⁻¹ s⁻¹ | some degree of selectivity for granulocytes | 4.8% | 0.9% | 1.6% | 3.3% | 3.8% |  |  |  | 
CCC1(CC)C(=O)N(C(=O)NCCC(=O)NCCN(CCNC(C)(C)C(C)=NO)CCNC(C)(C)C(C)=NO)C1Oc1ccc(C(=O)N2CCN(C)CC2)cc1 (racemic) [Compound 51, Conjugate Between Chelate, 3,3,11,11-Tetramethyl-7-aminomethyl-4,7,10-triazatridecane-2,12-dionedioxime and 4-[4-[[(4-Methyl)piperazin-1-yl]carbonyl]phenoxy]-1-[(2-carboxy)ethylaminocarbonyl]-3,3-diethyl-2-azetidinone] | 2500 M⁻¹ s⁻¹ | some degree of selectivity for granulocytes | 3.9% | 0.4% | 11.2% | 1.9% | 13.4% | 0.8% | 1.7% | 28.7% | 
CCC1(CC)C(=O)N(C(=O)NCc2ccccc2)C1Oc1ccc(C(=O)NCCN(CCNC(C)(C)C(C)=NO)CCNC(C)(C)C(C)=NO)cc1 (racemic) [Compound 52, Conjugate Between Chelate, 3,3,11,11-tetramethyl-7-aminomethyl-4,7,10-triazatridecane-2,12-dionedioxime and 4-[(4-carboxy)phenoxy]-1-[benzylaminocarbonyl]-3,3-diethyl-2-azetidinone] | 7800 M⁻¹ s⁻¹ | some degree of selectivity for granulocytes | 1.9% | 0.8% | 7.1% | 1.8% | 8.2% | 37.4% | 9.1% | 10.9% | 
